Test results taken from patent publication US10626112B2, “Heterocyclic sulfonamide derivative and medicine comprising same” (EA PHARMA CO., LTD., priority 2014, dated 2020).

Biological target: human TRPA1 (Homo sapiens (Human), UniProt O75762)
Test: Measurement of TRPA1 antagonist activity (2): as (1), different lot of human TRPA1 expression plasmid
Format: cell-based
Conditions: 293T cells transfected with human TRPA1, allylisothiocyanate 20 μM stimulation, calcium fluorescence, read-out: hTRPA1 IC50
Experimental: Human embryonic kidney-derived 293T cells were cultured in Dulbecco's Modified Eagle Medium containing 10% fetal bovine serum, 10 unit penicillin, and 10 μg streptomycin, plated on a petri dish having a diameter of 10 cm at 3×10^6 cells, and cultured for 24 hr in a CO2 incubator. A reduced serum medium (manufactured by Invitrogen, trade name: OPTI-MEM, 600 μL), a gene transfer reagent (manufactured by Mirus Bio, trade name: Mirus TransIT-293, 18 μL), and human TRPA1 expression plasmid (6 μg) were mixed, the total amount of the mixture was added to the cells on the petri dish to allow for gene transfer. The cells were recovered about for 8 hr later, plated on a poly-D-lysine coated 384 well black/clear bottom plate at 12,000 cells/well, and cultured overnight.
Measurement of Intracellular Calcium Increase
The 384 well plate was recovered, and the medium was removed. A calcium-bonded fluorescent indicator (manufactured by Molecular Device, trade name: Calcium4 Assay Kit, 38 μL) dissolved in assay buffer (1×HBSS, 20 mM HEPES, pH 7.2) was added, and the cells were stained in a CO2 incubator for 1 hr. The cells were taken out at room temperature, stood for not less than 15 min, a test substance (10 μL) was added by a platereader FDSS7000 (Hamamatsu Photonics K.K.) equipped with a 384ch dispenser. After 10 min, allylisothiocyanate (12 μL) was further added at a final concentration of 20 μM, and changes in the relative fluorescence intensity after addition of allylisothiocyanate were measured for 5 min.
Test Substance Preparation
The test substance was dissolved in dimethyl sulfoxide and serially diluted with an assay buffer containing 0.1% bovine serum albumin (1×HBSS, 20 mM HEPES, pH 7.2) to a 4.8-fold concentration of the evaluation concentration. Allylisothiocyanate, which is a known TRPA1 activator, was dissolved in dimethyl sulfoxide to 100 mM, and further diluted 5-fold (100 μM) of the final concentration, like the test substance.
Calculation of Antagonist Activity
Under the test substance-free conditions, the maximum variation range of the fluorescence intensity before and after allylisothiocyanate stimulation was defined to be 100% activity rate, and the variation range before and after buffer stimulation was defined as 0% activity rate. The activity rate on addition of the test substance was determined, and the numerical value obtained by subtracting the activity rate from 100 was defined to be an inhibitory rate. IC50, which is the concentration of the test substance necessary for reaching the 50% inhibitory rate, was calculated from the sigmoid approximate curve by a spreadsheet software Excel-Fit.
Measurement of TRPA1 Antagonist Activity (2)
By a method similar to that in Experimental Example 1-1 except that the lot of human […] expression plasmid is different, the TRPA1 antagonist activity of the test substance was measured.

Sequence of human TRPA1 (O75762 whole entry): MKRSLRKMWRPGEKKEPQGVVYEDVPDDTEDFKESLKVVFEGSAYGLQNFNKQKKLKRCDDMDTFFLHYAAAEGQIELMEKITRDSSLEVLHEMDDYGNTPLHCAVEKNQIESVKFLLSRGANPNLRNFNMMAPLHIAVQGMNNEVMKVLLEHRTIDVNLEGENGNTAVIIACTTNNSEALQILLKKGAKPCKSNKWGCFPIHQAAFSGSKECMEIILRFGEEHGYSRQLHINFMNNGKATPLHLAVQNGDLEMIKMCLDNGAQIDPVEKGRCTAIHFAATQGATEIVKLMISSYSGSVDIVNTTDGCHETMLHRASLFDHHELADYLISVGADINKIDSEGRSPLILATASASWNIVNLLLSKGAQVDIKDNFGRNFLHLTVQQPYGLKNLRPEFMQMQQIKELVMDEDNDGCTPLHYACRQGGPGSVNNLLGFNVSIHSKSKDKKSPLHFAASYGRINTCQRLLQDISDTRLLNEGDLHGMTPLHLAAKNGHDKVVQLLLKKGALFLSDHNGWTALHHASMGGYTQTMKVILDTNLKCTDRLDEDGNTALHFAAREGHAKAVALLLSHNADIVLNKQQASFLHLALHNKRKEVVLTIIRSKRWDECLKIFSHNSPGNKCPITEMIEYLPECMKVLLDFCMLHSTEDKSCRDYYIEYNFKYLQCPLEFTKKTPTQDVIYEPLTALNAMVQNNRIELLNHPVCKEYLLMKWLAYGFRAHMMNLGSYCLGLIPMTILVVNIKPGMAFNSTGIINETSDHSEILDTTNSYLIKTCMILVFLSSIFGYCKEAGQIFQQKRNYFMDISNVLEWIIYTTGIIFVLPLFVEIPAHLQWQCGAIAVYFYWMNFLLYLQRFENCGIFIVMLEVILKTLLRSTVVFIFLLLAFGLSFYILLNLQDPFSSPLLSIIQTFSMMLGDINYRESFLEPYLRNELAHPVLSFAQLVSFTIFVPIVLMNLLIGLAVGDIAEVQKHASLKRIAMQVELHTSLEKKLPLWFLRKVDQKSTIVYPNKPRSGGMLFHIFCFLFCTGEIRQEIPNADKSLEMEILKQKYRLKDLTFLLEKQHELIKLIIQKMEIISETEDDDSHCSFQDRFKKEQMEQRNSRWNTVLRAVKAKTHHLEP

Structure (SMILES) | IC50 [nM]
O=C(NCc1ccc(O)c(-c2cnc(C(F)(F)F)cn2)c1)[C@@H]1CCN1S(=O)(=O)c1cc2cc(F)ccc2o1 [Example 390, (2S)-1-(5-fluorobenzofuran-2-yl)sulfonyl-N-[[4-hydroxy-3-[5-(trifluoromethyl)pyrazin-2-yl]phenyl]methyl]azetidine-2-carboxamide] | 9.3
O=C(NCc1cc(-c2cnc(C(F)(F)F)cn2)ccn1)[C@@H]1CCN1S(=O)(=O)c1cc2cc(F)ccc2o1 [Example 393, (2S)-1-(5-fluorobenzofuran-2-yl)sulfonyl-N-[[4-[5-(trifluoromethyl)pyrazin-2-yl]-2-pyridyl]methyl]azetidine-2-carboxamide] | 9.1
O=C(NCc1ccnc(-c2cnc(C(F)(F)F)nc2)c1)[C@@H]1CCCN1S(=O)(=O)c1cc2cc(F)ccc2o1 [Example 402, (2S)-1-(5-fluorobenzofuran-2-yl)sulfonyl-N-[[2-[2-(trifluoromethyl)pyrimidin-5-yl]-4-pyridyl]methyl]pyrrolidine-2-carboxamide] | 3.5
O=C(NCc1ccc(O)c(-c2ccc(C(F)(F)F)nn2)c1)[C@@H]1CCCN1S(=O)(=O)c1cc2ccccc2o1 [Example 380, (2S)-1-(benzofuran-2-ylsulfonyl)-N-[[4-hydroxy-3-[6-(trifluoromethyl)pyridazin-3-yl]phenyl]methyl]pyrrolidine-2-carboxamide] | 3.1
C[C@H](NS(=O)(=O)c1cc2cnccc2o1)C(=O)NCc1cc(-c2ccc(C(F)(F)F)cc2O)ncn1 [Example 414, (2S)-2-(furo[3,2-c]pyridin-2-ylsulfonylamino)-N-[[6-[2-hydroxy-4-(trifluoromethyl)phenyl]pyrimidin-4-yl]methyl]propanamide] | 34
O=C(NCc1cc(-c2ncc(C(F)(F)F)cn2)ccn1)[C@@H]1CCCN1S(=O)(=O)c1cc2cnccc2o1 [Example 365, (2S)-1-furo[3,2-c]pyridin-2-ylsulfonyl-N-[[4-[5-(trifluoromethyl)pyrimidin-2-yl]-2-pyridyl]methyl]pyrrolidine-2-carboxamide] | 220
C[C@@H](C(=O)NCc1cc(-c2ccc(C(F)(F)F)cc2)ncn1)N(C)S(=O)(=O)c1cc2cc(F)ccc2o1 [Example 421, (2S)-2-[(5-fluorobenzofuran-2-yl)sulfonyl-methyl-amino]-N-[[6-[4-(trifluoromethyl)phenyl]pyrimidin-4-yl]methyl]propanamide] | 2.9
O=C(NCc1cc(-c2cnc(C(F)(F)F)nc2)ncn1)[C@@H]1CCN1S(=O)(=O)c1cc2cc(F)ccc2o1 [Example 387, (2S)-1-(5-fluorobenzofuran-2-yl)sulfonyl-N-[[6-[2-(trifluoromethyl)pyrimidin-5-yl]pyrimidin-4-yl]methyl]azetidine-2-carboxamide] | 55
O=C(NCc1cc(-c2ncc(C(F)(F)F)cn2)ccn1)[C@@H]1CCCN1S(=O)(=O)c1cc2cc(F)ccc2o1 [Example 407, (2S)-1(5-fluorobenzofuran-2-yl)sulfonyl-N-[[4-[5-(trifluoromethyl)pyrimidin-2-yl]-2-pyridyl]methyl]pyrrolidine-2-carboxamide] | 7
C[C@H](NS(=O)(=O)c1cc2cnccc2o1)C(=O)NCc1cc(-c2ccc(C(F)(F)F)cc2)nc(N(C)C)n1 [Example 369, (2S)-N-[[2-(dimethylamino)-6-[4-(trifluoromethyl)-phenyl]pyrimidin-4-yl]methyl]-2-(furo[3,2-c]pyridin-2-ylsulfonylamino)propanamide] | 44
C[C@H](NS(=O)(=O)c1cc2cc(F)ccc2o1)C(=O)NCc1ccc(O)c(-c2ccc(C(F)(F)F)nn2)c1 [Example 381] | 20
O=C(NCc1cc(-c2ccc(OC(F)(F)F)cc2)ncn1)[C@@H]1CCCN1S(=O)(=O)c1cc2cc(F)ccc2o1 [Example 406, (2S)-1-(5-fluorobenzofuran-2-yl)sulfonyl-N-[[6-[4-(trifluoromethoxy)phenyl]-pyrimidin-4-yl]methyl]pyrrolidine-2-carboxamide] | 2.7
O=C(NCc1cc(-c2ccc(C(F)(F)F)cn2)ccn1)[C@@H]1CCN1S(=O)(=O)c1cc2ccccc2o1 [Example 385, (2S)-1-(benzofuran-2-ylsulfonyl)-N-[[4-[5-(trifluoromethyl)-2-pyridyl]-2-pyridyl]methyl]azetidine-2-carboxamide] | 13
C[C@H](NS(=O)(=O)c1cc2cc(F)ccc2o1)C(=O)NCc1cc(-c2ccc(C(F)(F)F)cc2)nc(N(C)C)n1 [Example 370, (2S)-N-[[2-(dimethylamino)-6-[4-(trifluoromethyl)-phenyl]pyrimidin-4-yl]methyl]-2-[(5-fluorobenzofuran-2-yl)sulfonylamino]propanamide] | 73
O=C(NCc1cc(-c2ccc(C(F)(F)F)cc2)nc(N2CCC2)n1)[C@@H]1CCCN1S(=O)(=O)c1cc2ccccc2o1 [Example 328, (2S)-N-[[2-(azetidin-1-yl)-6-[4-(trifluoromethyl)phenyl]pyrimidin-4-yl]methyl]-1-(benzofuran-2-ylsulfonyl)pyrrolidine-2-carboxamide] | 16
COCCN(CC(=O)NCc1cc(-c2ccc(C(F)(F)F)cc2)ncn1)S(=O)(=O)c1cc2cc(F)ccc2o1 [Example 357, 2-[(5-fluorobenzofuran-2-yl)sulfonyl-(2-methoxyethyl)-amino]-N-[[6-[4-(trifluoromethyl)-phenyl]pyrimidin-4-yl]methyl]acetamide] | 44
C[C@H](C(=O)NCc1cc(-c2ccc(C(F)(F)F)cn2)ccn1)N(C)S(=O)(=O)c1cc2cc(F)ccc2o1 [Example 342, (2R)-2-[(5-fluorobenzofuran-2-yl)sulfonyl-methyl-amino]-N-[[4-[5-(trifluoromethyl)-2-pyridyl]-2-pyridyl]methyl]propanamide] | 180
O=C(CNS(=O)(=O)c1cc2cc(F)ccc2o1)NCc1cc(-c2ccc(OC(F)(F)F)cc2)ncn1 [Example 363, 2-[(5-fluorobenzofuran-2-yl)sulfonylamino]-N-[[6-[4-(trifluoromethoxy)phenyl]-pyrimidin-4-yl]methyl]acetamide] | 920
O=C(NCc1cc(-c2ccc(C(F)(F)F)nc2)ncn1)[C@@H]1CCN1S(=O)(=O)c1cc2cc(F)ccc2o1 [Example 388, (2S)-1-(5-fluorobenzofuran-2-yl)sulfonyl-N-[[6-[6-(trifluoromethyl)-3-pyridyl]pyrimidin-4-yl]methyl]azetidine-2-carboxamide] | 2.7
O=C(NCc1cc(-c2ccc(C(F)(F)F)cn2)cnn1)[C@@H]1CCN1S(=O)(=O)c1cc2cc(F)ccc2o1 [Example 391, (2S)-1-(5-fluorobenzofuran-2-yl)sulfonyl-N-[[5-[5-(trifluoromethyl)-2-pyridyl]pyridazin-3-yl]methyl]azetidine-2-carboxamide] | 26
O=C(NCc1cc(-c2ccc(C(F)F)cc2)ccn1)[C@@H]1CCCN1S(=O)(=O)c1cc2ccccc2o1 [Example 333, (2S)-1-(benzofuran-2-ylsulfonyl)-N-[[4-[4-(difluoromethyl)phenyl]-2-pyridyl]methyl]pyrrolidine-2-carboxamide] | 21
O=C(CNS(=O)(=O)c1cc2cc(F)ccc2o1)NCc1cc(-c2ccc(C(F)(F)F)cn2)ccn1 [Example 343, 2-[(5-fluorobenzofuran-2-yl)sulfonylamino]-N-[[4-[5-(trifluoromethyl)-2-pyridyl]-2-pyridyl]methyl]acetamide] | 280
O=C(NCc1cc(-c2ccc(C(F)(F)F)cn2)ccn1)C(CF)NS(=O)(=O)c1cc2cc(F)ccc2o1 (stereo not shown) [Example 427, 3-fluoro-2-[(5-fluorobenzofuran-2-yl)sulfonylamino]-N-[[4-[5-(trifluoromethyl)-2-pyridyl]-2-pyridyl]methyl]propanamide] | 170
O=C(CN(Cc1ccccn1)S(=O)(=O)c1cc2cc(F)ccc2o1)NCc1cc(-c2ccc(C(F)(F)F)cc2)ncn1 [Example 353, 2-[(5-fluorobenzofuran-2-yl)sulfonyl-(2-pyridylmethyl)-amino]-N-[[6-[4-(trifluoromethyl)-phenyl]pyrimidin-4-yl]methyl]acetamide] | 300
CN(C)c1nc(CNC(=O)[C@@H]2CCN2S(=O)(=O)c2cc3cc(F)ccc3o2)cc(-c2ccc(C(F)(F)F)cc2O)n1 [Example 398, (2S)-N-[[2-(dimethylamino)-6-[2-hydroxy-4-(trifluoromethyl)phenyl]-pyrimidin-4-yl]methyl]-1-(5-fluorobenzofuran-2-yl)sulfonyl-azetidine-2-carboxamide] | 21
